The record followed here is ChEMBL document CHEMBL1201862, “PubChem BioAssay data set” (2004).

The target in assay [1] is Heat shock protein HSP 90-alpha (Homo sapiens, UniProt P07900). Briefly: Luminescence-based dose response biochemical high throughput screening assay for inhibitors of the Heat Shock Protein 90 (HSP90). [Related pubchem assays: 1831 (Summary AID.), 1846 (Confirmation screen.), 1789 (Primary screen.)].
The target of a further assay is Transthyretin (Homo sapiens, UniProt P02766). Briefly: Luminescence-based cell-based high throughput dose response assay to identify activators of Transthyretin (TTR) transcription. Type of assay: functional.
A short description of assay [2]: CCRF-CEM leukemia cell viability loss, dose response, HRAS target identification, CellTiter-Glo ATP luminescence, 8/24/48 h, dry powder (AID 720607). Type of assay: functional, cell-based.
The nature of assay [3]: LOX IMVI melanoma cell viability loss, dose response, HRAS target identification, CellTiter-Glo ATP luminescence, 8/24/48 h, dry powder (AID 720602). Type of assay: functional, cell-based.
Assay [4] can be described thus: C2C12 myoblast ATP-based viability loss, dose response, cytotoxicity control for HRAS target identification, cell-based, CellTiter-Glo ATP luminescence, 8/24/48 h, dry powder (AID 720603). Type of assay: functional. (In general: Cellular ATP, detected with luciferase, serves as a proxy for viable cell number.)
Assay [5] in a line: SNB-19 glioblastoma cell viability loss, dose response, HRAS target identification, Alamar Blue fluorescence, 8/24/48 h, dry powder (AID 720600). Type of assay: functional, cell-based. (Alamar Blue is a resazurin reagent that responds to reducing activity.)
Assay [6] can be described thus: SR lymphoma cell viability over time, late-stage follow-up, mechanism study for HRAS target identification, CellTiter-Glo ATP luminescence, 8-48 h, dry powder (AID 720608). Type of assay: functional, cell-based.
A short description of assay [7]: U-251 glioblastoma cell viability loss, dose response, HRAS target identification, Alamar Blue fluorescence, 8/24/48 h, dry powder (AID 720605). Type of assay: functional, cell-based.
A short description of assay [8]: HT-29 colorectal cell cytotoxicity over time, dose response, HRas target identification project, CellTiter-Glo, multiple timepoints, dry powder (AID 720598). Type of assay: functional, cell-based.
Assay [9] is described as follows: SNB-19 glioblastoma cell viability over time, late-stage follow-up, mechanism study for HRAS target identification, CellTiter-Glo ATP luminescence, 8-48 h, dry powder (AID 720611). Type of assay: functional, cell-based.
For assay [10], the target named is G-protein coupled receptor 183 (Homo sapiens, UniProt P32249). Briefly: SAR confirmation of small molecule antagonists of the EBI2 receptor via a luminescent beta-arrestin assa. Type of assay: functional.
Assay [11] is described as follows: growth inhibition of intracellular T. cruzi, dose response, cell-based, plate reader, dry powder samples (AID 651845). Type of assay: functional.
Assay [12] is described as follows: T. b. rhodesiense proliferation inhibition, dose response, STIB900 strain, plate reader, cherry pick (AID 651893). Type of assay: functional, cell-based. Particulars: Trypanosoma brucei.
A short description of assay [13]: T. cruzi amastigote growth inhibition, dose response, Tulahuen strain, L-6 host cells, dry powder (AID 651890). Type of assay: functional, cell-based.
Assay [14] can be described thus: L. donovani amastigote growth inhibition, dose response, axenic amastigotes, plate reader, dry powder (AID 651892). Type of assay: functional, cell-based.
The nature of assay [15]: L-6 rat myoblast cytotoxicity, dose response, counter-screen for T. cruzi inhibitor project, cell-based, plate reader, dry powder (AID 651895). Type of assay: functional. In general terms: A counterscreen serves to expose hits that act by an unwanted route or on another target.
The nature of assay [16]: T. cruzi intracellular amastigote growth inhibition, dose response, imaging, CA-I/72 strain, bovine embryo skeletal muscle, dry powder (AID 651885). Type of assay: functional, cell-based.
Assay [17] in a line: T. cruzi growth inhibition in host cells, dose response, cell-based, plate reader, dry powder, set 2 (AID 652275). Type of assay: functional.
Assay [18] is described as follows: intracellular Trypanosoma cruzi inhibitors in host cells – cell-based, plate reader, cherry-pick samples, set 3, dose response (AID 651818).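 Note: compounds incubated with infected cells for about four days.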 Type of assay: functional.
Assay [19] is described as follows: T. b. rhodesiense proliferation inhibition, dose response, STIB900 strain, plate reader, dry powder (AID 651894). Type of assay: functional, cell-based.
The nature of assay [20]: P. falciparum blood-stage growth inhibition, dose response, NF54 strain, plate reader, dry powder (AID 651889). Type of assay: functional, cell-based.
Assay [21] can be described thus: L. donovani amastigote growth inhibition, dose response, axenic amastigotes, plate reader, cherry pick (AID 651891). The settings on record: Leishmania donovani. Type of assay: functional, cell-based.
Assay [22] can be described thus: cytotoxicity in L-6 rat myocytes, dose response, cytotoxicity control, cell-based, plate reader, cherry-pick (AID 651896). Type of assay: functional.
Another assay concerns the target Kallikrein-7 (Homo sapiens, UniProt P49862). Kind of assay: Fluorescence Intensity-based biochemical primary high throughput dose response assay to identify activators of kallikrein-7 (K7) zymogen.
Assay [23] has as its target Luciferin 4-monooxygenase (Photinus pyralis, UniProt P08659). Kind of assay: firefly luciferase enzyme inhibitors, dose response, biochemical, luminescence (AID 1891).
The nature of assay [24]: Fluorescence Cell-Based Dose Response to Identify Inhibitors of Thrombin Receptor-Activating Peptide SFLLRN-Mediated P-Selectin Induction on Platelets. [Related pubchem assays: 1663 (Primary HTS), 1889 (retest at dose ), 1891 (counterscreen), 1678 (Project Summary)]. Type of assay: functional.
A short description of assay [25]: Luminescence Cell-Based Dose Confirmation HTS to Identify Inhibitors of Platelet Dense Granule Release. [Related pubchem assays: 1663 (Primary HTS), 1678 (Summary of Project)]. Type of assay: functional.
In assay [26] the target is COUP transcription factor 2 (Homo sapiens, UniProt P24468). Kind of assay: Luminescence-based cell-based high throughput dose response assay to identify inhibitors of COUP-TFII (NR2F2). Type of assay: functional.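 Note: HEK293 cells transiently cotransfected with COUP-TFII expression vector and reporter; luciferase reporter luminescence driven by COUP-TFII from the pX2-168 reporter plasmid.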
Another assay addresses Protein Wnt-3a (Mus musculus, UniProt P27467). Briefly: Wnt3a-driven reporter signaling inhibition, dose response, selectivity assay for Gli-SUFU antagonist project, Wnt-LIGHT cells, luminescence (AID 651570).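 Note: Wnt-LIGHT reporter cells stimulated with conditioned medium from Wnt3a-producing cells.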 Type of assay: functional. The settings on record: read-out: IC50_Mean.

One may read the EC50 as the midpoint of the concentration-response curve. The term AC50 denotes the midpoint of the concentration-response curve, whichever way the signal moves.

The source made the active and inactive calls. Unless noted, no cut-off for these calls is given here. Where only a bound is given, the exact number is not on record here.

Sequence of Luciferin 4-monooxygenase (P08659 whole entry): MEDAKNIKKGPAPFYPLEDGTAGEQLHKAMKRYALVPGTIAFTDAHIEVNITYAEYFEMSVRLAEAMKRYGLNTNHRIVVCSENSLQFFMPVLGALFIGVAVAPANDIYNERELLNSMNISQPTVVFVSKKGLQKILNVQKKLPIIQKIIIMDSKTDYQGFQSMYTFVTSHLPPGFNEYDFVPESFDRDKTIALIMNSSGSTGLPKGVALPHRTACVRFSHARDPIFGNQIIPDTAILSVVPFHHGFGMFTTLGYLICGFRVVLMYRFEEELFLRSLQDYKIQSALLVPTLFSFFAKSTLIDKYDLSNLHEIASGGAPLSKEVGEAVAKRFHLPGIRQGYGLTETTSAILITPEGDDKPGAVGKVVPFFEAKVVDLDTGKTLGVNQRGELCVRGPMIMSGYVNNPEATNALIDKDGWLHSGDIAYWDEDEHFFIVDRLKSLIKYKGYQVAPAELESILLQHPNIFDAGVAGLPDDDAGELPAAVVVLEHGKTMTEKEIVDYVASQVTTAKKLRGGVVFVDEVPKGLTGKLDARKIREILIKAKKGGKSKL
Sequence of Kallikrein-7 (P49862 whole entry): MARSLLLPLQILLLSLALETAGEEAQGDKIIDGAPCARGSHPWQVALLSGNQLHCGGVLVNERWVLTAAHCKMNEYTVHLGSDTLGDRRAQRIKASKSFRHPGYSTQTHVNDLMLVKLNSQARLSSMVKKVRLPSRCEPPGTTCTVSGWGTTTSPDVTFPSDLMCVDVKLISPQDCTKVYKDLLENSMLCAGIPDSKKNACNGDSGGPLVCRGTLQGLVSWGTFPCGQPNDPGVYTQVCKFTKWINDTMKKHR
Sequence of Protein Wnt-3a (P27467 whole entry): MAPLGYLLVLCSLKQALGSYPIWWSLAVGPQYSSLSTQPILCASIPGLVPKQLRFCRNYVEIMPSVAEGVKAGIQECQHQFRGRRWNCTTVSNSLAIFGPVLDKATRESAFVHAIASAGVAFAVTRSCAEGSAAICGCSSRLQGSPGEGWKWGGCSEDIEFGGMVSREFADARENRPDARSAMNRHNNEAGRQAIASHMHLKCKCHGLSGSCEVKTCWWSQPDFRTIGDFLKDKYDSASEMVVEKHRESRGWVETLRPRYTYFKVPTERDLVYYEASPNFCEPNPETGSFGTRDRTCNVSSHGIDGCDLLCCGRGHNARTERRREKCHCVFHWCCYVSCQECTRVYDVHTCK
Sequence of G-protein coupled receptor 183 (P32249 whole entry): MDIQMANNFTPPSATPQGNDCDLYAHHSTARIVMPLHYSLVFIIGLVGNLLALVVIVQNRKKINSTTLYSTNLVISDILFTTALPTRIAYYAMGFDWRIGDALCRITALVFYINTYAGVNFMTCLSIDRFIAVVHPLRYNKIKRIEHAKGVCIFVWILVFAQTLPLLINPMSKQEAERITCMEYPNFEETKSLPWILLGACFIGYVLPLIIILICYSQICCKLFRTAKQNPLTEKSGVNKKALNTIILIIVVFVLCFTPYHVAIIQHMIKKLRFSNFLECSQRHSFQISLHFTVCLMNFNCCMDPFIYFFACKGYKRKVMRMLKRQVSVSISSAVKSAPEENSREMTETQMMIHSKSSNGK
Sequence of COUP transcription factor 2 (P24468 whole entry): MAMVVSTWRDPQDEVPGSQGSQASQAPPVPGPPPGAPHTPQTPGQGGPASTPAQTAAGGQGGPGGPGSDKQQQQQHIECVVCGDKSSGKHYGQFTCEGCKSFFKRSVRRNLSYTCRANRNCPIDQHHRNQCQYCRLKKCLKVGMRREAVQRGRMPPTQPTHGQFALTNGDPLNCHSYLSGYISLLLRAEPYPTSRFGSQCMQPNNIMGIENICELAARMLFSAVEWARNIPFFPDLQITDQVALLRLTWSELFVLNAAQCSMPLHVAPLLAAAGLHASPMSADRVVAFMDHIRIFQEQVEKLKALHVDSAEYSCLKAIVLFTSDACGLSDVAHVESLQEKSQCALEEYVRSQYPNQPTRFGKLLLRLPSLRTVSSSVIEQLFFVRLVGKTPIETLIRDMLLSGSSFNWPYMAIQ

Consider `Cc1nc(NC(=O)/C=C/c2ccccc2)sc1C(=O)Nc1ccccc1Cl`, for which the IC50 in assay [1] is 2910 nM (active).

With `CC(Oc1ccccc1)C(=O)N1CCN=C1SCc1ccccc1` (centres undefined), on Transthyretin, the EC50 was > 167000 nM (inactive).

Take `C#CCCCC(=O)NCCOCCOCCOc1ccc(N(C(=O)CCl)C(C(=O)NCCc2ccccc2)c2cccs2)cc1Cl` (centres undefined): the AC50 in [2] was 1380 nM (active); in assay [3], 993 nM (active); in [4] it was 16600 nM (active); in assay [5] it was 22400 nM (active); in assay [6], 1180 nM (active); in [7], 1250 nM (active). Also, the AC50 in assay [8] is 4900 nM (active); in assay [9] it was 4540 nM (active).

Turning to `O=C(CCc1ccc(F)cc1)N1CCN(S(=O)(=O)/C=C/c2ccccc2)CC1`, the IC50 in assay [10] is 113 nM (active).

Turning to `C[C@H]1CN([C@@H](C)CO)C(=O)c2cccc(NC(=O)c3ccncc3)c2O[C@@H]1CN(C)Cc1ccc(Oc2ccccc2)cc1`, the AC50 is 0.457 nM (active) in assay [11], 4.42 nM (active) in [17] and 80 nM (active) in [18]. For the same compound, the IC50 in assay [12] was 5780 nM (inactive); in assay [13] it was 29.5 nM (active); in [14], 8400 nM (inactive); in assay [15], 17100 nM (inactive); in assay [16] it was 0.66 nM (active); in assay [19], 1500 nM (inactive). For the same compound, the IC50 in assay [20] is 504 nM (inactive); in [21], 13200 nM (inactive); in assay [22], 14400 nM (active).

With `CNc1ccc(-c2cccc(CO)c2)cn1`, the EC50 on Kallikrein-7 was > 7720 nM (active).

`COc1cc2c(cc1OC)C(/C=C(\O)c1ccc(NC(C)=O)cc1)=NCC2`: the EC50 is > 112000 nM (not active) in [23], < 300 nM (active) in assay [24] and 3330 nM (active) in assay [25].

With `CCC(C)NC(=O)CCC(=O)OC1O[C@H]2OC3(C)CC[C@H]4[C@H](C)CCC(C1C)C24OO3` (some centres undefined), the IC50 is 468000 nM (inactive) in [26] and 238 nM (active) on Protein Wnt-3a.
